Measurements published in patent publication US9518000B2, “Bicyclo [2.2.1] acid GPR120 modulators” (BRISTOL-MYERS SQUIBB COMPANY, priority 2013, dated 2016).

What was measured:
human GPR120 = human GPR120 (Homo sapiens (Human), UniProt Q5NUL3); assay: GPR120 pERK AlphaScreen SureFire Assay (human GPR120 pERK assay); format: cell-based; details: CHOA12 or CHO-K1 cells stably transfected with the short form of human GPR120 receptor; phosphorylated ERK; read-out: EC50 values measured in the human GPR120 pERK assay
How it was run: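 CHO cells (CHOA12 or CHO-K1) stably expressing short-form human GPR120 were serum-starved for 2 h, then exposed to compound for 7 min at 37 °C over an 11-point range of 33.33 μM–0.56 nM final. ERK phosphorylation was read by AlphaScreen SureFire and normalised to DMSO and to 50 μM linolenic acid. EC50 was derived from a 4-parameter logistic fit.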

C57BL/6 mice = assay: Acute Oral Glucose Tolerance Test; format: in vivo; details: oral glucose tolerance test in mice at dose of 30 mg/kg; AUC t=0-120 min compared to vehicle
Method: In Vivo GPR120 Assays 1) Acute Oral Glucose Tolerance Test
C57BL/6 mice were housed individually and fed a standard rodent chow diet. At approximately 11 weeks age, after a 5 h fast, these mice were orally treated with vehicle or test compounds 60 min before a glucose challenge (2 g/kg). Blood glucose levels were determined from tail bleeds taken at −60, 0, 15, 30, 60 and 120 min after the glucose challenge. The blood glucose excursion profile from t=0-120 min was used to calculate an area under the curve (AUC) for compound treatment. This AUC for compound treatment is compared to vehicle treatment.

Sequence of human GPR120 (Q5NUL3 whole entry): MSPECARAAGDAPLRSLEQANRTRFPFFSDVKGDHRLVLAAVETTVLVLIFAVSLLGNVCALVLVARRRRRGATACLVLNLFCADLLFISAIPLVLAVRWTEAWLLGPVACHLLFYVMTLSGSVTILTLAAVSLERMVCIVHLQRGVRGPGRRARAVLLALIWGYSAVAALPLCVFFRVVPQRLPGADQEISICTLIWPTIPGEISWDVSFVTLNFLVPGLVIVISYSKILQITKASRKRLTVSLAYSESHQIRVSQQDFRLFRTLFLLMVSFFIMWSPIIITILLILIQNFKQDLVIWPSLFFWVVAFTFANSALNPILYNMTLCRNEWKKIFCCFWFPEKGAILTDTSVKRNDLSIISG

| Structure (SMILES) | EC50 (human GPR120) [nM] | reduced glucose AUC levels (C57BL/6 mice) [%] |
| --- | --- | --- |
| O=C(O)COCC12CCC(OCc3cc(F)cc(Oc4ccccc4)c3)(CC1)C2 [Example 73, 2-((4-(3-fluoro-5-phenoxybenzyloxy)bicyclo [2.2.1]heptan-1-yl)methoxy) acetic acid] | 1620 | 21 |
| O=C(O)[C@H]1C[C@@H]1CC12CCC(OCc3cc(F)cc(Oc4ccccc4)c3)(CC1)C2 (single isomer, unassigned) [Example 92] | 600 | 25 |
